Bounds are passed on as bounds.

Sequence of PI-3 kinase γ (P48736 whole entry): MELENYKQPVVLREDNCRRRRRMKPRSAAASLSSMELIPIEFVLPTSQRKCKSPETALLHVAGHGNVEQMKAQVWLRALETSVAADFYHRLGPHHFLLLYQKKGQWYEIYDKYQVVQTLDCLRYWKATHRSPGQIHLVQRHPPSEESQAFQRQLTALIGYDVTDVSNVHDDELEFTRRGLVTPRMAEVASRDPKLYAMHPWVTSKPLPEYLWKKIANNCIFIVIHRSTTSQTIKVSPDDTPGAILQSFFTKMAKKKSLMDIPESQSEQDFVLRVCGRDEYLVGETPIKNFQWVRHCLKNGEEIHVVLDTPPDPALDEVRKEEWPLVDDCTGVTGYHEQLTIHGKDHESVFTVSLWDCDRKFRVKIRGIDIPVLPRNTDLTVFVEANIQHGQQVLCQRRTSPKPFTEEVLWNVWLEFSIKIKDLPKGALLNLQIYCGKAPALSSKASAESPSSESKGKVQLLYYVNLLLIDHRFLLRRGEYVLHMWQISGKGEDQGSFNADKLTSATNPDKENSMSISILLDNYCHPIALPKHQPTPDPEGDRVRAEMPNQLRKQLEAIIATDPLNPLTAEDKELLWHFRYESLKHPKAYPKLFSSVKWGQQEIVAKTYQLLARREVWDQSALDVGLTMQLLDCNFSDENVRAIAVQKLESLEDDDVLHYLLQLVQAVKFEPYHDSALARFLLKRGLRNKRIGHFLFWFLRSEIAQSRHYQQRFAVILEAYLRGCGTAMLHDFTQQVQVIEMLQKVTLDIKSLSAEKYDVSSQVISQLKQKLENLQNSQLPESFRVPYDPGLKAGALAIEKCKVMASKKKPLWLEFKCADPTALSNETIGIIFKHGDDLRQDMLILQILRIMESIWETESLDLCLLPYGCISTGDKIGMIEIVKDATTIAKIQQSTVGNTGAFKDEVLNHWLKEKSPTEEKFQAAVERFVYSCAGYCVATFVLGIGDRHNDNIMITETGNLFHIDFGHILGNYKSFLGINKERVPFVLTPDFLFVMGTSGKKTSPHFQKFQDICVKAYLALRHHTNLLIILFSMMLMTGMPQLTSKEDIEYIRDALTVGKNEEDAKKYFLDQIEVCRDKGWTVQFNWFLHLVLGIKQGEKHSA

One experiment addresses PI-3 kinase γ (Homo sapiens, UniProt P48736). The experiment can be described thus: PI3Kγ inhibitory activity, PI3-kinase HTRF assay (inhibition ratio). The experiment is classed as biochemical. The conditions noted are these: 0.5 h; PI3Kγ, compound at 10 μM. How it is done: The PI3Kγ inhibitory activity of a compound was evaluated using PI3-kinase HTRF™ assay (Millipore) according to the following procedure:
To each well of a testing plate, 5 μL of a compound solution containing 10% DMSO (200 μmol/L or 40 μmol/L as the concentration of the compound), 5 μL of a substrate solution (40 μmol/L phosphatidylinositol (4,5)-bisphosphate, 20 mmol/L MgCl2, 10 mmol/L DTT), and 5 μL of a enzyme solution (80 μg/mL PI-3 kinase γ, 10 mmol/L MgCl2, 5 mmol/L DTT) were added, and then allowed to stand for 10 minutes.
Then, 5 μL of a reaction solution (40 μmol/L ATP, 10 mmol/L MgCl2, 5 mmol/L DTT) was added thereto. After reacting for 30 minutes at room temperature, 5 μL of a solution containing EDTA and biotinylated phosphatidylinositol (3,4,5)-triphosphate were added to quench the reaction.
5 μL of a detection reagent containing a europium-labeled anti-GST antibody, the GST-tagged PH domain, and allophycocyanin-labeled streptavidin was added thereto. After 18 hours, HTRF (excitation wavelength: 330 nm, measured wavelengths: 620 nm and 665 nm) was measured.
HTRF ratio was defined as the value obtained by dividing the amount of fluorescence obtained at the measured wavelength 665 nm by the amount of fluorescence obtained at 620 nm. The HTRF ratio in the absence of a compound was defined as 100% activity and the HTRF ratio in the absence of PI-3 kinase γ was defined as 0% activity to calculate an inhibition ratio which was defined as the PI3Kγ inhibitory activity of a compound at 50 μmol/L or 10 μmol/L.
Background: TR-FRET usually uses a lanthanide donor and a delayed reading to cut background.
For orientation: inhibition means the drop in the measured response relative to a control, in per cent. With `COc1cc(N2CCc3nc(NC(=O)N[C@@H](CC(=O)OC(C)(C)C)C(=O)O)sc3C2)nc(OC)n1` [Compound I-280], the inhibition at 10 µM is at least 95%.
With `COc1cccc(CC(=O)Nc2nc3c(s2)CN(c2cc(OC)nc(OC)n2)CC3)c1` [Compound I-251], the inhibition at 10 µM came to 88%.
Same read-out and setting: then `COc1cc(N2CCc3nc(NC(=O)NCCCC(=O)OC(C)(C)C)sc3C2)nc(OC)n1` [Compound I-261], with 90%.

The experiment is the same for the next values; noted with them: 0.5 h; PI3Kγ, compound at 50 μM.
`COC(=O)c1cc(N2CCc3nc(NC(=O)c4cccc(Cl)c4)sc3C2)nc(Cl)n1` [Compound I-126]: the inhibition at 50 µM is at least 95%.
Same read-out and setting: then `CNC(=O)Nc1cc2n(n1)CCN(c1cc(OC)nc(OC)n1)C2` [Compound I-133], with at least 95%; and `CNC(=O)Nc1cc2n(n1)CCN2c1ccc2c(c1)CCC2=O` [Compound I-193], with at least 95%; and `CNC(=O)Nc1cc2n(n1)CCN2c1ccc(F)c(C(=O)O)c1` [Compound I-189], with at least 95%.
With `CNC(=O)Nc1cc2n(n1)CCN2C(=O)c1ccccc1` [Compound I-5], the inhibition at 50 µM amounted to 89%.
On the same count and under the same terms, then `CNC(=O)Nc1cc2n(n1)CCN2c1cc(Br)cc(C(=O)NCCC(=O)OC(C)(C)C)c1` [Compound I-174], with at least 95%; and `CNC(=O)Nc1nc2c(s1)CN(c1cc(N)nc(Cl)n1)CC2` [Compound I-122], with 76%.
On the same count and under the same terms, the value for `CNC(=O)Nc1cc2n(n1)CCN2c1ccccn1` [Compound I-88] was 85%; that for `O=C(Nc1cc2n(n1)CCN2c1cccc(Cl)c1)c1cccc(O)c1` [Compound I-240] was 91%.
Same read-out and setting: the value for `COc1cc(N2CCc3nc(NC(=O)c4cnco4)sc3C2)nc(OC)n1` [Compound I-204] was 88%; that for `CC(=O)N1CCC(C(=O)Nc2cc3n(n2)CCN3c2cccc(Cl)c2)CC1` [Compound I-236] was 88%.
Turning to `NC(=O)CCC(=O)Nc1cc2n(n1)CCN2c1cccc(Cl)c1` [Compound I-249], the inhibition at 50 µM is at least 95%.
Still for that read-out and setting: the value for `CNC(=O)Nc1cc2n(n1)CCN2c1ccc(OC)cc1` [Compound I-114] was 83%.
Still for that read-out and setting: the value for `CNC(=O)Nc1cc2n(n1)CCN2c1cccc(C(=O)O)c1` [Compound I-91] was at least 95%.
Same read-out and setting: the value for `O=C(O)CC(=O)Nc1cc2n(n1)CCN2c1cccc(Cl)c1` [Compound I-235] was 89%; that for `CNC(=O)Nc1cc2n(n1)CCN2c1cc(Br)cc(C(=O)N(C)C)c1` [Compound I-195] was 93%; that for `CNC(=O)Nc1cc2n(n1)CCN2c1cc(C#Cc2cccnc2)cc(C(=O)N2CCOCC2)c1` [Compound I-254] was 81%.
As to `CNC(=O)Nc1cc2n(n1)CCN2c1cc(C(=O)N2CCOCC2)cc(-c2cnc(N)nc2)c1` [Compound I-209], the inhibition at 50 µM was at least 95%.
Same read-out and setting: the value for `CNC(=O)Nc1cc2n(n1)CCN2c1cc(C(=O)OC)cc(-c2ccccc2)c1` [Compound I-161] was at least 95%.
On the same count and under the same terms, the value for `CNC(=O)Nc1cc2n(n1)CCN2C(=O)c1ccc2c(c1)CCO2` [Compound I-35] was 77%; that for `O=C(O)CNC(=O)Nc1cc2n(n1)CCN2c1ccccc1` [Compound I-132] was at least 95%.
On the same count and under the same terms, the value for `CNC(=O)Nc1cc2n(n1)CCN(c1cccnc1)C2` [Compound I-86] was 90%; that for `CNC(=O)Nc1nc2c(s1)CN(c1cncc(Cl)n1)CC2` [Compound I-123] was at least 95%.
Consider `CNC(=O)Nc1nc2c(s1)CN(c1cc(C(=O)O)nc(Cl)n1)CC2` [Compound I-101], for which the inhibition at 50 µM is at least 95%.
With `CNC(=O)Nc1cc2n(n1)CCN2c1cc(C#CC2CCN(C(=O)OC(C)(C)C)CC2)cc(C(=O)N2CCOCC2)c1` [Compound I-250], the inhibition at 50 µM was at least 95%.
For the compound `CNC(=O)Nc1nc2c(s1)CN(c1cc(OC)nc(N)n1)CC2` [Compound I-145], the inhibition at 50 µM is at least 95%.
Same read-out and setting: the value for `CNC(=O)Nc1cc2n(n1)CCN2c1cc(Nc2ccccc2)cc(C(=O)OC)c1` [Compound I-162] was at least 95%; that for `CNC(=O)Nc1nc2c(s1)CN(c1cc(C(=O)NC)nc(Cl)n1)CC2` [Compound I-119] was at least 95%.
On the same count and under the same terms, the value for `COc1cc(N2CCc3nc(NC(=O)[C@H](O)c4ccccc4)sc3C2)nc(OC)n1` [Compound I-257] was 83%.

Staying with this experiment, now noted: 0.5 h; compound at 10 μmol/L.
Take `COc1cc(N2CCc3nc(NC(=O)NCC4(C(=O)NC(C)C)CC4)sc3C2)nc(OC)n1` [Compound I-546]: the inhibition at 10 µM was 86%.
Still for that read-out and setting: the value for `COc1cccc(N2CCn3nc(NC(=O)CCNC(=O)OC(C)(C)C)cc32)c1` [Compound I-293] was 86%.
Still for that read-out and setting: then `COC(=O)Nc1cc[nH]c1C(=O)Nc1cc2n(n1)CCN2c1cccc(OC)c1` [Compound I-364], with at least 95%; and `COc1cc(N2CCc3nc(NC(=O)NCC(C)C(=O)NC(C)C)sc3C2)nc(OC)n1` (centres unmarked) [Compound I-547], with at least 95%; and `CN1CCc2cc(N3CCn4nc(NC(=O)c5cccc(N)c5)cc43)ccc2C1=O` [Compound I-473], with at least 95%.
Same read-out and setting: the value for `CN1CCc2cc(N3CCn4nc(NC(=O)[C@@H]5CCC(=O)N5)cc43)ccc2C1=O` [Compound I-506] was 84%; that for `CN1CCc2cc(N3CCn4nc(NC(=O)c5cnc(N6CCC[C@H]6C(=O)OC(C)(C)C)s5)cc43)ccc2C1=O` [Compound I-525] was 94%.
As for `CN1CCc2cc(N3CCn4nc(NC(=O)c5csc(S(=O)(=O)N6CCCC6)c5)cc43)ccc2C1=O` [Compound I-436], the inhibition at 10 µM is at least 95%.
Same read-out and setting: then `CC(Oc1cccc(C(=O)Nc2cc3n(n2)CCN3c2ccc3c(c2)CCN(C)C3=O)c1)C(N)=O` (centres unmarked) [Compound I-468], with at least 95%; and `CN1CCc2cc(N3CCn4nc(NC(=O)c5cccc(NC(=O)OC(C)(C)C)c5)cc43)ccc2C1=O` [Compound I-466], with 83%.
Same read-out and setting: the value for `CN1CCc2cc(N3CCn4nc(NC(=O)c5csc(Br)c5)cc43)ccc2C1=O` [Compound I-396] was 76%; that for `CN1CCc2cc(N3CCn4nc(NC(=O)Nc5cccs5)cc43)ccc2C1=O` [Compound I-367] was 86%.
Same read-out and setting: the value for `CN1CCc2cc(N3CCn4nc(NC(=O)N5CCCC5)cc43)ccc2C1=O` [Compound I-453] was 76%; that for `CC(C)NS(=O)(=O)c1ccc(C(=O)Nc2cc3n(n2)CCN3c2ccc3c(c2)CCN(C)C3=O)cc1` [Compound I-527] was 79%; that for `COCCNC(=O)c1ccc(C(=O)Nc2cc3n(n2)CCN3c2ccc3c(c2)CCN(C)C3=O)s1` [Compound I-410] was at least 95%.
On to `CNC(=O)Nc1nc2c(s1)CN(c1cc(N(C)C)nc(OC)n1)CC2` [Compound I-362], for which the inhibition at 10 µM is at least 95%.
Same read-out and setting: then `CC(=O)Nc1cc2n(n1)CCN2c1ccc2c(c1)CCCN2C(=O)OC(C)(C)C` [Compound I-306], with at least 95%; and `CC(=O)Nc1cc2n(n1)CCN2c1ccc2c(c1)CCC(=O)N2` [Compound I-335], with at least 95%.
The same measure, in the same setting: then `CN1CCc2cc(N3CCn4nc(NC(=O)NCCC(=O)O)cc43)ccc2C1=O` [Compound I-537], with 87%.
The same measure, in the same setting: the value for `CN1CCc2cc(N3CCn4nc(NC(=O)c5cnc(N)o5)cc43)ccc2C1=O` [Compound I-381] was at least 95%; that for `COc1nc(Cl)cc(N2CCc3nc(NC(=O)NCCC(=O)NC(C)C)sc3C2)n1` [Compound I-554] was 88%; that for `COc1cc(N2CCc3nc(NC(=O)NCCC(=O)N4CCC[C@H]4C(=O)NC(C)(C)C)sc3C2)nc(OC)n1` [Compound I-311] was at least 95%.
As for `CC(C)c1cc(C(=O)Nc2cc3n(n2)CCN3c2ccc3c(c2)CCN(C)C3=O)cs1` [Compound I-427], the inhibition at 10 µM was 88%.
On the same count and under the same terms, then `CCCCOc1ccc(C(=O)Nc2cc3n(n2)CCN3c2ccc3c(c2)CCN(C)C3=O)cc1` [Compound I-477], with 82%; and `CC(C)N(C)C(=O)c1cc(C(=O)Nc2cc3n(n2)CCN3c2ccc3c(c2)CCN(C)C3=O)cs1` [Compound I-433], with at least 95%; and `COC(=O)c1csc(C(=O)Nc2cc3n(n2)CCN3c2ccc3c(c2)CCN(C)C3=O)c1` [Compound I-399], with at least 95%.
`COc1cccc(N2CCn3nc(NC(=O)c4ccc[nH]4)cc32)c1` [Compound I-320]: the inhibition at 10 µM is at least 95%.
For the compound `COC(=O)Nc1ccccc1C(=O)Nc1cc2n(n1)CCN2c1ccc2c(c1)CCN(C)C2=O` [Compound I-482], the inhibition at 10 µM is at least 95%.

The experiment is the same for the next values; noted with them: 0.5 h; compound at 50 μmol/L.
For the compound `CNC(=O)Nc1nc2c(s1)CN(c1cc(OCC3CC3)nc(Cl)n1)CC2` [Compound I-325], the inhibition at 50 µM turned out to be 81%.
Same read-out and setting: then `CN1CCc2cc(N3CCn4nc(NC(=O)C(O)c5ccccc5)cc43)ccc2C1=O` (centres unmarked) [Compound I-352], with 81%.

The values are drawn from US20110230472A1, “RING-FUSED AZOLE DERIVATIVE HAVING PI3K-INHIBITING ACTIVITY” (Shionogi & Co., Ltd., priority 2008, published 2011).
